{
  "source": "the supplement of paper PMC10307832",
  "test_in_all_cases": "relative viability (nuclei count vs DMSO), 5 days (fraction); higher = more cells survive",
  "key": {"Obatoclax + Crizotinib": {"compound": "COC1=CC(c2cc3ccccc3[nH]2)=N/C1=C\\c1[nH]c(C)cc1C [Obatoclax] + C[C@@H](Oc1cc(-c2cnn(C3CCNCC3)c2)cnc1N)c1c(Cl)ccc(F)c1Cl [Crizotinib] (partner 1 µM)", "outline": "(§1)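 Lung cancer cell lines in 1536-well plates got either a single drug or a fixed anchor-drug dose together with five library-drug doses (not always all listed) in √10 steps, by pin tool, on the day after seeding. Nuclei were counted after 5 days, and relative viability is the treated-to-vehicle ratio of nuclei counts. Values are medians of duplicate plates.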"}, "[1]": {"compound": "CC1=CC(=NN1)NC2=CC(=NC(=N2)/C=C/C3=CC=CC=C3)N4CCN(CC4)C + Cc1cc(Nc2cc(N3CCN(C)CC3)nc(Sc3ccc(NC(=O)C4CC4)cc3)n2)n[nH]1 [Tozasertib] (partner 0.1 µM)", "outline": "as §1"}, "Obatoclax": {"compound": "COC1=CC(c2cc3ccccc3[nH]2)=N/C1=C\\c1[nH]c(C)cc1C [Obatoclax]", "outline": "(§2)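 Viability is treated-well nuclei as a fraction of vehicle-well nuclei, reported as the median across plates. Before counting, lung cancer cell lines were kept overnight at 37 °C in 1536-well plates, pinned with five √10-spaced library-drug doses on vehicle-anchored plates, and left 5 days without medium change, then fixed, permeabilised and Hoechst-stained in one step, imaged at 4× and counted by MetaXpress. A plate passed only if control CV was below 25% and at least one doubling occurred.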"}, "[2]": {"compound": "CC1=CC(=NN1)NC2=CC(=NC(=N2)/C=C/C3=CC=CC=C3)N4CCN(CC4)C", "outline": "as §2"}},
  "data": [
    {"cell line": "NCI-H650", "values": [
      {"measurement": "relative viability", "setting": "Obatoclax + Crizotinib; first compound 0.01 µM", "value": 0.717},
      {"measurement": "relative viability", "setting": "Obatoclax + Crizotinib; first compound 0.03162 µM", "value": 0.668},
      {"measurement": "relative viability", "setting": "Obatoclax + Crizotinib; first compound 0.1 µM", "value": 0.561},
      {"measurement": "relative viability", "setting": "Obatoclax + Crizotinib; first compound 0.3162 µM", "value": 0.498},
      {"measurement": "relative viability", "setting": "Obatoclax + Crizotinib; first compound 1 µM", "value": 0.323},
      {"measurement": "relative viability", "setting": "[1]; first compound 0.253 µM", "value": 0.822},
      {"measurement": "relative viability", "setting": "[1]; first compound 0.8 µM", "value": 0.603},
      {"measurement": "relative viability", "setting": "[1]; first compound 2.53 µM", "value": 0.4},
      {"measurement": "relative viability", "setting": "[1]; first compound 8 µM", "value": 0.173},
      {"measurement": "relative viability", "setting": "Obatoclax; 0.01 µM", "value": 1.02},
      {"measurement": "relative viability", "setting": "Obatoclax; 0.03162 µM", "value": 0.765},
      {"measurement": "relative viability", "setting": "Obatoclax; 0.3162 µM", "value": 0.742},
      {"measurement": "relative viability", "setting": "Obatoclax; 1 µM", "value": 0.445},
      {"measurement": "relative viability", "setting": "[2]; 0.08 µM", "value": 0.701},
      {"measurement": "relative viability", "setting": "[2]; 0.253 µM", "value": 1.15},
      {"measurement": "relative viability", "setting": "[2]; 0.8 µM", "value": 1.1},
      {"measurement": "relative viability", "setting": "[2]; 2.53 µM", "value": 0.492},
      {"measurement": "relative viability", "setting": "[2]; 8 µM", "value": 0.208}
    ]}
  ]
}
